Assay results as given in PMC3961306, “Comparison of the Cancer Gene Targeting and Biochemical Selectivities of All Targeted Kinase Inhibitors Approved for Clinical Use” (PLoS ONE, 2014).

Experiments:
Assay in all cases: Kinase profiling in a biochemical assay panel (mobility shift assays and ELISA), %-inhibition at 1 μM; selectivity entropy
[1] = molecular target: panel of more than 300 wild-type and mutant kinases (313 kinase panel) (Homo sapiens, UniProt O96017); details: kinase CHK2; 1 μM compound
[2] = molecular target: T1, panel of more than 300 wild-type and mutant kinases (313 kinase panel) (Homo sapiens, UniProt P46734); details: kinase MAP2K3; compound at 1 μM
T1 sequence (P46734 1-347): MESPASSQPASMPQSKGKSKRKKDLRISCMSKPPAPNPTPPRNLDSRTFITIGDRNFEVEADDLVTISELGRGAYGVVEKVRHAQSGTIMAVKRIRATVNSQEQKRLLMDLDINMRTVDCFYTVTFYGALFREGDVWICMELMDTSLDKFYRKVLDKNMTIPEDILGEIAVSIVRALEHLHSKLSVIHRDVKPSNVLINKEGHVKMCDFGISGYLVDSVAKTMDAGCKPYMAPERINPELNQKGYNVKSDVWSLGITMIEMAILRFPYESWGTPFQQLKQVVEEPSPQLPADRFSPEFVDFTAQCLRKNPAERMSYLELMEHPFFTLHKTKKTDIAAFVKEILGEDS

[3] = molecular target: panel of more than 300 wild-type and mutant kinases (313 kinase panel) (Homo sapiens, UniProt Q14680); details: kinase MELK; compound at 1 μM
[4] = molecular target: panel of more than 300 wild-type and mutant kinases (313 kinase panel) (Homo sapiens, UniProt Q15375); details: kinase EPHA7; compound at 1 μM
[5] = molecular target: T2, panel of more than 300 wild-type and mutant kinases (313 kinase panel) (Homo sapiens, UniProt Q96BR1); details: kinase SGK3; 1 μM
T2 sequence (Q96BR1 1-496): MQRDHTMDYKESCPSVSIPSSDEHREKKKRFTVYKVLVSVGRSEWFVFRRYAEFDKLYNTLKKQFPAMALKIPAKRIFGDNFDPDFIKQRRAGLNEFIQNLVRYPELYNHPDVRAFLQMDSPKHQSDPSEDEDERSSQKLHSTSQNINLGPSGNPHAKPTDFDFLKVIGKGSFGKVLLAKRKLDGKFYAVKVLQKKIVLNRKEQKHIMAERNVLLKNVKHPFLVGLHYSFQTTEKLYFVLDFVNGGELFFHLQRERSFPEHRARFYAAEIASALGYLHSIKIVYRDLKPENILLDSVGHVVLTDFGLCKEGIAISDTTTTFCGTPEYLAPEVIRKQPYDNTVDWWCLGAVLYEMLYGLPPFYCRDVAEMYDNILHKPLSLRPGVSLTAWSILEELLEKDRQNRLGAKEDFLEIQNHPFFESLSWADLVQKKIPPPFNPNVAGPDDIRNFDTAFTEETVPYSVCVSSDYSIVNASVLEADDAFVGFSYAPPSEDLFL

[6] = molecular target: T3, panel of more than 300 wild-type and mutant kinases (313 kinase panel) (Homo sapiens, UniProt Q99759); details: kinase MAP3K3; compound at 1 μM
T3 sequence (Q99759 1-626): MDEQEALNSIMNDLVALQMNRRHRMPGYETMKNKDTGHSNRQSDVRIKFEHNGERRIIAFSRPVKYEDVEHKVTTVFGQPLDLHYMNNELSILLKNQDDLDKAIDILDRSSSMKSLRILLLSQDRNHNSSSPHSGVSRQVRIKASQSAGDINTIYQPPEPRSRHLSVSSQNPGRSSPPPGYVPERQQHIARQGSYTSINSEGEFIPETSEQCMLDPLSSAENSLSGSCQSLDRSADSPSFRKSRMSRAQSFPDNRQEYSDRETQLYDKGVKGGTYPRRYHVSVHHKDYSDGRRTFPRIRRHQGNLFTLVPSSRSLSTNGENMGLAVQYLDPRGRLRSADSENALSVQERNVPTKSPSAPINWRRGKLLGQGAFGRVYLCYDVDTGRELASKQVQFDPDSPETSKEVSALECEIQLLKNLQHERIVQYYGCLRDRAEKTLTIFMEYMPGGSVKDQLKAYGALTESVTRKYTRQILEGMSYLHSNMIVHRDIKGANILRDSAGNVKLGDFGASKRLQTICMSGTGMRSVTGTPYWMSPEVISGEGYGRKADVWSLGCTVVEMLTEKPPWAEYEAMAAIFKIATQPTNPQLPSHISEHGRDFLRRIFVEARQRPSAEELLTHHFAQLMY

[7] = molecular target: T4, panel of more than 300 wild-type and mutant kinases (313 kinase panel) (Homo sapiens, UniProt Q9UHD2); details: kinase TBK1; 1 μM
T4 sequence (Q9UHD2 1-729): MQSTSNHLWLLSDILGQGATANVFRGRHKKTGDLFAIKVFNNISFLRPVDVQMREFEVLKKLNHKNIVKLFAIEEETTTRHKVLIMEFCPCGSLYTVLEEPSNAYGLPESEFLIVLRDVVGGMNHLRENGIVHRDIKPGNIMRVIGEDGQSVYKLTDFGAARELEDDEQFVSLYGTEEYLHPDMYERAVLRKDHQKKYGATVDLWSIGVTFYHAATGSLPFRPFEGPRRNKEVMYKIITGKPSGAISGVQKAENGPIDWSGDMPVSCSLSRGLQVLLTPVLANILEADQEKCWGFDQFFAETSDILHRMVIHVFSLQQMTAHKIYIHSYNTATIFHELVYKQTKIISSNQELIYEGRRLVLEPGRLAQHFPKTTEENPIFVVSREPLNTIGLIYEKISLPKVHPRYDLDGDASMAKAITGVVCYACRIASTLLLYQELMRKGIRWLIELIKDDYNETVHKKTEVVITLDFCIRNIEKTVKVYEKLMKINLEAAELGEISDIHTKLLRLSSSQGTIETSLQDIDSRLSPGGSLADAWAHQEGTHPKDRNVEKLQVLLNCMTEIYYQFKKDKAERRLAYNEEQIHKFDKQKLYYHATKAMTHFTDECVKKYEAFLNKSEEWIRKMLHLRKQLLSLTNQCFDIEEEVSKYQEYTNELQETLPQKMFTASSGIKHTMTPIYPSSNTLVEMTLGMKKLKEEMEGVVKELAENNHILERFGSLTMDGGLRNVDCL

Chain of panel of more than 300 wild-type and mutant kinases (313 kinase panel) (Homo sapiens, UniProt Q15375) (Q15375 28-998, change not shown): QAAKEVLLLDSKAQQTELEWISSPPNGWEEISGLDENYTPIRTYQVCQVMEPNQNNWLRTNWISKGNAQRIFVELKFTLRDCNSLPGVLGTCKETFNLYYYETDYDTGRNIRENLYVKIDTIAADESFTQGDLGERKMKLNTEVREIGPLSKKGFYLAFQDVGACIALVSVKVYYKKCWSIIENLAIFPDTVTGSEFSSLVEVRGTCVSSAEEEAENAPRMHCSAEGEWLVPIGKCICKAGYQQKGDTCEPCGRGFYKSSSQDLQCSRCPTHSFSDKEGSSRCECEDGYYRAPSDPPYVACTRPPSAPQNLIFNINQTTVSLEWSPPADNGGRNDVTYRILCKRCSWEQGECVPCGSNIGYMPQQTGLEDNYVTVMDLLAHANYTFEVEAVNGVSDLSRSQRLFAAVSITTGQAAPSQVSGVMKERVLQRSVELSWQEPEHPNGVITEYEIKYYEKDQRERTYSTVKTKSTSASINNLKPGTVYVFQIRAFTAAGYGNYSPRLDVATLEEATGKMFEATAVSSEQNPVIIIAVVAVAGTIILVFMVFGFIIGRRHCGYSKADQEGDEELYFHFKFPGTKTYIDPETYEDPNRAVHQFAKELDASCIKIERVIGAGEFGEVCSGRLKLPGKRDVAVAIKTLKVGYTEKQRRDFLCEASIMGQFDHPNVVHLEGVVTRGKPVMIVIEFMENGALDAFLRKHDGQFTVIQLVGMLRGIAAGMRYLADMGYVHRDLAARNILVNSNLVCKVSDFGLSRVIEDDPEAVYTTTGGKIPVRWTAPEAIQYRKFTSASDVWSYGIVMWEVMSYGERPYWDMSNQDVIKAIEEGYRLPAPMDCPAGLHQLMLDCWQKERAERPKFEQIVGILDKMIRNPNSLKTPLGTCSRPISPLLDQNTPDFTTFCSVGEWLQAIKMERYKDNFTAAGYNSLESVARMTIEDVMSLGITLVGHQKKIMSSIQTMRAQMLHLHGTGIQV

Compound	%-inhibition, CHK2 [1] [%]	%-inhibition of MAP2K3 [2] [%]	%-inhibition of MELK [3] [%]	%-inhibition of EPHA7 [4] [%]	%-inhibition of SGK3 [5] [%]	%-inhibition of MAP3K3 [6] [%]	%-inhibition of TBK1 [7] [%]
CC(=O)Nc1cccc(-n2c(=O)n(C3CC3)c(=O)c3c(Nc4ccc(I)cc4F)n(C)c(=O)c(C)c32)c1 [trametinib]	-5	3	-0.588	-5	0.769	-6.63	-4.47
CO[C@H]1C[C@@H]2CC[C@@H](C)[C@@](O)(O2)C(=O)C(=O)N2CCCC[C@H]2C(=O)O[C@H]([C@H](C)C[C@@H]2CC[C@@H](OC(=O)C(C)(CO)CO)[C@H](OC)C2)CC(=O)[C@H](C)/C=C(\C)[C@@H](O)[C@@H](OC)C(=O)[C@H](C)C[C@H](C)/C=C/C=C/C=C/1C [temsirolimus]	-3.45	10	-1.66	-6	-4	10	-2.23
